Experimental data published in PMC10263468, “Biosynthesis of cannabigerol and cannabigerolic acid: the gateways to further cannabinoid production” (Synthetic Biology, 2023).

Tests used:
Assay in all cases: endpoint assay, LC-MS quantification of product
AtaPT [1] = biological target: T1, AtaPT (Aspergillus terreus, UniProt A0A1B0UHJ4, E91Q); format: biochemical; details: read-out: Apparent Km; co-substrate GPP 1 mM; 1 μM enzyme; 25 mM Tris pH 8, 150 mM NaCl, 5% glycerol; 25°C; approximate constant
T1 construct: gene PT; N-terminal His6 tag (pETM11), codon-optimised synthetic gene, E. coli ArcticExpress (DE3), purified
From the text: (§1) endpoint assay, LC-MS quantification of product on AtaPT

AtaPT [2] = biological target: T2, AtaPT (Aspergillus terreus, UniProt A0A1B0UHJ4, E91A); format: biochemical; details: read-out: Apparent Km; co-substrate GPP 1 mM; 1 μM enzyme; 25 mM Tris pH 8, 150 mM NaCl, 5% glycerol; 25°C; approximate constant
T2 construct: gene PT; N-terminal His6 tag (pETM11), codon-optimised synthetic gene, E. coli ArcticExpress (DE3), purified
From the text: as §1

AtaPT [3] = biological target: T3, AtaPT (Aspergillus terreus, UniProt A0A1B0UHJ4, E91D); format: biochemical; details: read-out: Apparent Km; co-substrate GPP 1 mM; 1 μM enzyme; 25 mM Tris pH 8, 150 mM NaCl, 5% glycerol; 25°C; approximate constant
T3 construct: gene PT; N-terminal His6 tag (pETM11), codon-optimised synthetic gene, E. coli ArcticExpress (DE3), purified
From the text: as §1

[4] = tested on: CCCCCc1cc(O)cc(O)c1C(=O)O; format: biochemical, Aspergillus terreus; details: co-substrate GPP 1 mM, 10 μM enzyme, 25 mM Tris pH 8, 150 mM NaCl, 5% glycerol, 25°C, approximate constant (high enzyme concentration)
From the text: as §1

T3 sequence (A0A1B0UHJ4 whole entry E91D): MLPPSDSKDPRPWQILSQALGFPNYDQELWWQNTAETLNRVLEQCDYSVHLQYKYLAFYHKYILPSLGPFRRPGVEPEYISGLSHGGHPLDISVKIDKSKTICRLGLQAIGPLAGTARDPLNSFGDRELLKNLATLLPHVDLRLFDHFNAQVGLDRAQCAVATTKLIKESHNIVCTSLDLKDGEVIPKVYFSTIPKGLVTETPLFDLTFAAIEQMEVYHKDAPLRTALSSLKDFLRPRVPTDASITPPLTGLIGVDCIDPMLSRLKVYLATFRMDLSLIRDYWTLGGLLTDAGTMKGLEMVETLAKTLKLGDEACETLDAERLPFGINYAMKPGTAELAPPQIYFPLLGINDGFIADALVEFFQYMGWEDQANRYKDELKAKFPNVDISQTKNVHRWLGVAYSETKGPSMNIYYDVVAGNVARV
T2 sequence (A0A1B0UHJ4 whole entry E91A): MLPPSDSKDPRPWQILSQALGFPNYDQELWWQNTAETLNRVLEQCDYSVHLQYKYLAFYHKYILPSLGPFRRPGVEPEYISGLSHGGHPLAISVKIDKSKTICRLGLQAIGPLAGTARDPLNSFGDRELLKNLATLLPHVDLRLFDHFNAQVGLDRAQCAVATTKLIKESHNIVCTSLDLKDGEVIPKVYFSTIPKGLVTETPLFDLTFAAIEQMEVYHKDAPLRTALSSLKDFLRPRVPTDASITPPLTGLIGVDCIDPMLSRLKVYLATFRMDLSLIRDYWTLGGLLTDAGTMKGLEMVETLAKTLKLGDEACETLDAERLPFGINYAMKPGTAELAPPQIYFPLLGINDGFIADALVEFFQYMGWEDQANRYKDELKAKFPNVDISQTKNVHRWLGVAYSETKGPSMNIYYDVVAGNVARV
T1 sequence (A0A1B0UHJ4 whole entry E91Q): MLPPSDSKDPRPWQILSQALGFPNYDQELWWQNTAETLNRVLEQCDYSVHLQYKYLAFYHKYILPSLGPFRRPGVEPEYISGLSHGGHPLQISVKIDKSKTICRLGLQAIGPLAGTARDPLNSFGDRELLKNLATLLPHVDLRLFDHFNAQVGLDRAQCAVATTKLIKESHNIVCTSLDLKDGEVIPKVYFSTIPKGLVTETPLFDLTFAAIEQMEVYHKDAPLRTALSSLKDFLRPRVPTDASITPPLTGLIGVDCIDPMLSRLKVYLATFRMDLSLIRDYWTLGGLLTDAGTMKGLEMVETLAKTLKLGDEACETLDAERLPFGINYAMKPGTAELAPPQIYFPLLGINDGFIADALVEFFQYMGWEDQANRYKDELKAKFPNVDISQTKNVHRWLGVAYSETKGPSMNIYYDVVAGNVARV

Compound | Km (AtaPT [1]) | Km (AtaPT [2]) | Km (AtaPT [3]) | Km [4] | kcat [4]
CCCCCc1cc(O)cc(O)c1C(=O)O [OA, olivetolic acid] | 94 ± 32 µM | 332 ± 96 µM | 266 ± 44 µM |  | 
AtaPT (Aspergillus terreus) |  |  |  | 1083 ± 126 µM | 0.000147 ± 5e-06 s⁻¹
